Measurements: the NIST ThermoML archive (doi:10.1021/je0601356)
Values joined by “and” are separate entries in the source; they are usually repeats but may differ in a detail not shown here. Equal values may be shown once.

Details: Liquid, Vibrating wire viscometry

FC(F)C(F)(F)F [pentafluoroethane]
Details | viscosity
253.99 K, 1440 kPa | 0.2707 mPa·s
253.99 K, 1450 kPa | 0.271 mPa·s
253.99 K, 1460 kPa | 0.271 mPa·s
253.99 K, 1470 kPa | 0.2711 mPa·s
253.99 K, 1480 kPa | 0.2707 mPa·s
253.99 K, 3250 kPa | 0.2794 mPa·s
253.99 K, 3280 kPa | 0.2794 mPa·s and 0.279 mPa·s and 0.2789 mPa·s
253.99 K, 5050 kPa | 0.2876 mPa·s
253.99 K, 5060 kPa | 0.2874 mPa·s
253.99 K, 5100 kPa | 0.2875 mPa·s
253.99 K, 5140 kPa | 0.2875 mPa·s
253.99 K, 7350 kPa | 0.2984 mPa·s
253.99 K, 7360 kPa | 0.2984 mPa·s
253.99 K, 7380 kPa | 0.2982 mPa·s
263.23 K, 1430 kPa | 0.2381 mPa·s
263.23 K, 1440 kPa | 0.2373 mPa·s and 0.2375 mPa·s
263.23 K, 1460 kPa | 0.2382 mPa·s
263.23 K, 1480 kPa | 0.2377 mPa·s
263.23 K, 3050 kPa | 0.2452 mPa·s
263.23 K, 3060 kPa | 0.2453 mPa·s
263.23 K, 3070 kPa | 0.2456 mPa·s
263.23 K, 5030 kPa | 0.2531 mPa·s
263.23 K, 5050 kPa | 0.2529 mPa·s
263.23 K, 5060 kPa | 0.2535 mPa·s
263.23 K, 5070 kPa | 0.2538 mPa·s
263.23 K, 5080 kPa | 0.2538 mPa·s
263.23 K, 5110 kPa | 0.2534 mPa·s
263.23 K, 7530 kPa | 0.2643 mPa·s
263.23 K, 7560 kPa | 0.2645 mPa·s
263.23 K, 7610 kPa | 0.2645 mPa·s
263.23 K, 7640 kPa | 0.2646 mPa·s
263.23 K, 9770 kPa | 0.2743 mPa·s
263.23 K, 9800 kPa | 0.274 mPa·s
263.23 K, 9820 kPa | 0.2745 mPa·s
273.08 K, 1460 kPa | 0.2076 mPa·s
273.08 K, 1480 kPa | 0.2075 mPa·s
273.08 K, 1490 kPa | 0.2074 mPa·s
273.08 K, 1500 kPa | 0.2074 mPa·s and 0.2073 mPa·s
273.08 K, 2940 kPa | 0.2147 mPa·s
273.08 K, 2950 kPa | 0.2145 mPa·s
273.08 K, 2990 kPa | 0.2145 mPa·s
273.08 K, 5020 kPa | 0.2234 mPa·s
273.08 K, 5030 kPa | 0.2229 mPa·s and 0.2233 mPa·s
273.08 K, 5040 kPa | 0.2224 mPa·s and 0.2226 mPa·s
273.08 K, 7480 kPa | 0.2324 mPa·s
273.08 K, 7490 kPa | 0.2327 mPa·s and 0.2324 mPa·s
273.08 K, 7510 kPa | 0.2324 mPa·s
273.08 K, 7520 kPa | 0.2326 mPa·s
273.08 K, 7530 kPa | 0.2324 mPa·s
273.08 K, 9680 kPa | 0.2416 mPa·s
273.08 K, 9690 kPa | 0.2419 mPa·s and 0.2421 mPa·s
273.08 K, 9710 kPa | 0.2416 mPa·s
283.29 K, 1550 kPa | 0.1781 mPa·s
283.29 K, 1580 kPa | 0.1789 mPa·s
283.29 K, 1590 kPa | 0.1788 mPa·s
283.29 K, 1600 kPa | 0.1785 mPa·s
283.29 K, 1620 kPa | 0.1783 mPa·s
283.29 K, 3000 kPa | 0.1852 mPa·s
283.29 K, 3010 kPa | 0.185 mPa·s
283.29 K, 3030 kPa | 0.1852 mPa·s
283.29 K, 3060 kPa | 0.185 mPa·s
283.29 K, 5190 kPa | 0.1957 mPa·s
283.29 K, 5220 kPa | 0.1955 mPa·s [middle of 4 runs]
283.29 K, 5230 kPa | 0.1953 mPa·s
283.29 K, 5270 kPa | 0.1956 mPa·s
283.29 K, 7590 kPa | 0.2059 mPa·s
283.29 K, 7600 kPa | 0.2057 mPa·s [middle of 5 runs]
283.29 K, 10040 kPa | 0.2155 mPa·s and 0.2159 mPa·s
283.29 K, 10050 kPa | 0.2155 mPa·s
283.29 K, 10070 kPa | 0.2155 mPa·s
283.29 K, 10080 kPa | 0.2157 mPa·s
293.13 K, 2020 kPa | 0.1577 mPa·s
293.13 K, 2030 kPa | 0.1581 mPa·s
293.13 K, 2070 kPa | 0.1583 mPa·s
293.13 K, 2100 kPa | 0.1584 mPa·s
293.13 K, 2110 kPa | 0.1583 mPa·s
293.13 K, 2140 kPa | 0.1583 mPa·s
293.13 K, 5080 kPa | 0.172 mPa·s
293.13 K, 5100 kPa | 0.1716 mPa·s
293.13 K, 5130 kPa | 0.1719 mPa·s and 0.1715 mPa·s
293.13 K, 7530 kPa | 0.1818 mPa·s and 0.1813 mPa·s and 0.1811 mPa·s
293.13 K, 9990 kPa | 0.1918 mPa·s
293.13 K, 10030 kPa | 0.1915 mPa·s
293.13 K, 10040 kPa | 0.1917 mPa·s [middle of 4 runs]
293.13 K, 10050 kPa | 0.1914 mPa·s
